According to patent publication US20220363719A1, “Reverse Amide-Linked Melanocortin Receptor-Specific Cyclic Peptides” (Palatin Technologies, Inc., priority 2020, published 2022):
Where a SMILES comes first, the peptide text is derived from it. Bridges are numbered along the chain shown (N, C = ends). [ ]: non-standard residue; d: D form. The star is where a group is joined. ξ: configuration not given here. d1Nal = N[C@H](Cc1cccc2ccccc12)C(=O)O; Nle = CCCC[C@H](N)C(=O)O; Orn = NCCC[C@H](N)C(=O)O; Dab = NCC[C@H](N)C(=O)O; ξHyp = O=C(O)C1CC(O)CN1; Dap = NC[C@H](N)C(=O)O; Hexanoyl = CCCCCC(=O)*; Ahx = NCCCCCC(=O)O; Bn = c1ccc(C*)cc1; GABA = NCCCC(=O)O; βAla = NCCC(=O)O

Legend:
Type in all cases: cell-based
hMC3r = hMC3r (Homo sapiens, UniProt P41968); assay: Alternative assay for agonist activity (intracellular cAMP), HEK-293 cells, recombinant MC3r; parameters: expressed in transfected cells; host or cells: HEK-293; conditions: for Emax: HEK293, not CEREP, reference NDP-α-MSH, read-out: Emax percent hMC3r (percent of the maximal response obtained with the positive control); for EC50: not CEREP, cAMP HTRF
hMC3r, sequence (P41968 whole entry): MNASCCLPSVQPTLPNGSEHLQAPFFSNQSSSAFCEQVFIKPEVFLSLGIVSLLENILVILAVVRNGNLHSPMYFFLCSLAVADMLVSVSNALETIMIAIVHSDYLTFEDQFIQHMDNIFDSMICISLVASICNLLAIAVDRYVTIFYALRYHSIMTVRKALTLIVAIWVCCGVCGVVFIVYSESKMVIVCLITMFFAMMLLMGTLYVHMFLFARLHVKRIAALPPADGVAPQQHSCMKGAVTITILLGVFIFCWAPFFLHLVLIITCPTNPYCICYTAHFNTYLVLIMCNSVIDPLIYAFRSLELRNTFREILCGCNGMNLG
Description: (§1) Accumulation of intracellular cAMP was examined as a measure of the ability of the peptides to elicit a functional response in either HEK-293 cells that express recombinant MC3r or MC4r or B16-F10 (mouse) and HBL (human) cell lines that express native MC1 r. Confluent cells were detached from culture plates by incubation in enzyme-free cell dissociation buffer. Dispersed cells were suspended in Hank's Balanced Salt Solution containing 10 mM HEPES (pH 7.5), 1 mM MgCl2, 1 mM glutamine, 0.5% albumin and 0.3 mM 3-isobutyl-1-methyl-xanthine (IBMX), a phosphodiesterase inhibitor. The cells were dispensed into 96-well plates at a density of 0.5×10^5 cells per well and pre-incubated for 10 minutes. Cells were exposed for 15 minutes at 37° C. to peptides dissolved in DMSO (final DMSO concentration of 1%) at a concentration range of 0.05-5000 nM in a total assay volume of 200 μL. NDP-α-MSH was used as the reference agonist. cAMP levels were determined by an HTRF® cAMP cell-based assay system from Cisbio Bioassays utilizing cryptate-labeled anti-cAMP and D2-labeled cAMP, with plates read on a Perkin-Elmer Victor plate reader at […]. Data analysis was performed by nonlinear regression analysis with Graph-Pad Prism® software. The maximum efficacies of the test peptides were compared to that achieved by the reference melanocortin agonist NDP-α-MSH.

mMC1r [1] = target: T1, mMC1r (Mus musculus, UniProt Q01727); assay: Alternative assay for agonist activity (intracellular cAMP), B16-F10 cells, native MC1r; parameters: B16-F10 (mouse) and HBL (human) cell lines that express native MC1 r; endogenous in cells; host or cells: B16-F10 mouse melanoma cells; conditions: not CEREP; for EC50: cAMP HTRF; for Emax: reference NDP-α-MSH, read-out: Emax percent mMC1r (percent of the maximal response obtained with the positive control)
T1 sequence (Q01727 whole entry): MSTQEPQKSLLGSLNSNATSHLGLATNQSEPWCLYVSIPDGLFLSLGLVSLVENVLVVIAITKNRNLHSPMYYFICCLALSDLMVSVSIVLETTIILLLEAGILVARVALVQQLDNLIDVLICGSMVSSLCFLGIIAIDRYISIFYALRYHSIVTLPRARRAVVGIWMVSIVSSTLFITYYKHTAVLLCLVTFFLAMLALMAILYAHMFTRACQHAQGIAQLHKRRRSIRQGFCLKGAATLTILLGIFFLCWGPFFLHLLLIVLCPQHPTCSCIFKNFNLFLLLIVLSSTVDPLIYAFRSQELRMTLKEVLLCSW
Description: as §1

hMC4r = hMC4r (Homo sapiens, UniProt P32245); assay: Alternative assay for agonist activity (intracellular cAMP), HEK-293 cells, recombinant MC4r; parameters: expressed in transfected cells; host or cells: HEK-293; conditions: for Emax: HEK293, not CEREP, reference NDP-α-MSH, read-out: Emax percent hMC4r (percent of the maximal response obtained with the positive control); for EC50: not CEREP, cAMP HTRF
hMC4r, sequence (P32245 whole entry): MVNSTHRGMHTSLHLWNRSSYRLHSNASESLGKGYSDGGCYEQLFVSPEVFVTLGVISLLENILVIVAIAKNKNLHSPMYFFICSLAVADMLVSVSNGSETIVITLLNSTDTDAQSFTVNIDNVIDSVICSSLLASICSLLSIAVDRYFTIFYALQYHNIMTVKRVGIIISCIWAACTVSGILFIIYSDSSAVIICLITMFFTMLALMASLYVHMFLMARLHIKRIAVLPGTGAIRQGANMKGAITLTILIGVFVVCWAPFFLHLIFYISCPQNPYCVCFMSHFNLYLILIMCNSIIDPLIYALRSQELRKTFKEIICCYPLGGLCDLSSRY
Description: as §1

hMC5r = target: T2, hMC5r (Homo sapiens, UniProt P33032); assay: cAMP agonist activity assay performed at CEREP (HTRF), MC5; conditions: determined by CEREP, CHO-K1 cells; for EC50: cAMP HTRF; for Emax: control Alpha-MSH, read-out: Emax percent hMC5r* (percent of the maximal response obtained with the positive control)
T2 construct: Eurofins CEREP SA
T2 sequence (P33032 whole entry): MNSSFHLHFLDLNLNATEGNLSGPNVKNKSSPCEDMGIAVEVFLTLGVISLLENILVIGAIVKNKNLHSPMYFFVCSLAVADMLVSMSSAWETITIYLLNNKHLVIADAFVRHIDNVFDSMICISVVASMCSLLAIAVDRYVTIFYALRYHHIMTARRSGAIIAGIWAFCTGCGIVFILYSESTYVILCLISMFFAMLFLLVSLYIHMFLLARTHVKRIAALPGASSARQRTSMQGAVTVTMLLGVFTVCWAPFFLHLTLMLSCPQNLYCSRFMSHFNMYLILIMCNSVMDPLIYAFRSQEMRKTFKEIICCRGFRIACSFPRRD
Description: (§2) Evaluation of the agonist activity of compounds at the melanocortin receptors was determined by measuring their effects on cAMP production using the HTRF detection method at CEREP (Eurofins CEREP SA, Celle-Lévescault, France). The cells were suspended in HBSS buffer (Invitrogen) complemented with 20 mM HEPES (pH 7.4) and 500 μM IBMX, then distributed in microplates and incubated in the presence of HBSS (basal control), the test compound or the reference agonist. Incubation time, temperature, cell number, reference agonist and cell line information are included in the Table 1 below. For stimulated control measurement, separate assay wells contain reference compound. Following incubation, the cells are lysed and the fluorescence acceptor (D2-labeled cAMP) and fluorescence donor (anti-cAMP antibody labeled with europium cryptate) were added. After 60 minutes at room temperature, the fluorescence transfer was measured at excitation wavelength 337 nm and emission wavelengths 620 and 665 nm using a microplate reader (Envision, Perkin Elmer). The cAMP concentration was determined by dividing the signal measured at 665 nm by that measured at 620 nm (ratio).
(§3) The results are expressed as a percent of the control response to 1 μM of the reference. The standard reference agonist is tested in each experiment at several concentrations to generate a concentration-response curve from which its EC50 value is calculated.

hMC1r = target: T3, hMC1r (Homo sapiens, UniProt Q01726); assay: Alternative assay for agonist activity (intracellular cAMP), HBL cells, native MC1r; conditions: not CEREP; for EC50: cAMP HTRF; for Emax: reference NDP-α-MSH, read-out: Emax percent hMC1r (percent of the maximal response obtained with the positive control)
T3 construct: B16-F10 (mouse) and HBL (human) cell lines that express native MC1 r; endogenous in cells; host or cells: HBL human melanoma cells
T3 sequence (Q01726 whole entry): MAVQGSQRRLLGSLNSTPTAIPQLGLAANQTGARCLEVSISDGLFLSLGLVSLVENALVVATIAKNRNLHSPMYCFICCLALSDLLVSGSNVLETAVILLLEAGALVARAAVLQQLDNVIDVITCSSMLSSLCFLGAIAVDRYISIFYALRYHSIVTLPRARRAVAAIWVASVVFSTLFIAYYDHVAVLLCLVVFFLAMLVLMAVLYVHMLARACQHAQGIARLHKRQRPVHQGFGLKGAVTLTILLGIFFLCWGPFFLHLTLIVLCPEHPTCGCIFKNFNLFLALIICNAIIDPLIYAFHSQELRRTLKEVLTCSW
Description: as §1

mMC1r [2] = target: T1, mMC1r; assay: cAMP agonist activity assay performed at CEREP (HTRF), MC1; conditions: determined by CEREP, B16-F1 cells; for EC50: cAMP HTRF; for Emax: control NDP-alpha-MSH, read-out: Emax percent mMC1r* (percent of the maximal response obtained with the positive control)
Description: as §2, §3

| SMILES | Emax (hMC3r) [%] | EC50 (hMC3r) [nM] | EC50 (mMC1r [1]) [nM] | Emax (mMC1r [1]) [%] | Emax (hMC4r) [%] | EC50 (hMC4r) [nM] | EC50 (hMC5r) [nM] | Emax (hMC5r) [%] | EC50 (hMC1r) [nM] | Emax (hMC1r) [%] | EC50 (mMC1r [2]) [nM] | Emax (mMC1r [2]) [%] |
| --- | --- | --- | --- | --- | --- | --- | --- | --- | --- | --- | --- | --- |
| CCCC[C@H](NC(C)=O)C(=O)N[C@H]1CCCCNC(=O)CCNC(=O)[C@H](Cc2c[nH]c3ccccc23)NC(=O)[C@H](CCCNC(=N)N)NC(=O)[C@@H](Cc2cccc3ccccc23)NC(=O)C2CC(OCc3ccccc3)CN2C1=O (stereo partly shown) [Peptide 2] (Ac-[Nle]K[ξHyp](Bn)[d1Nal]RW[βAla]; lactam 2-C) | 14 | > 10000 | 2 | 61 | 33 | 5 | 0.23 | 96 |  |  |  |  |
| CCCC[C@H](NC(C)=O)C(=O)N[C@H]1CCCNC(=O)CCNC(=O)[C@H](Cc2c[nH]c3ccccc23)NC(=O)[C@H](CCCNC(=N)N)NC(=O)[C@@H](Cc2cccc3ccccc23)NC(=O)C2CC(OCc3ccccc3)CN2C1=O (stereo partly shown) [Peptide 3] (Ac-[Nle][Orn][ξHyp](Bn)[d1Nal]RW[βAla]; lactam 2-C) | 12 | > 10000 | 2 | 67 | 31 | 5 | 0.2 | 93 |  |  |  |  |
| CCCC[C@H](NC(C)=O)C(=O)N[C@H]1CCCNC(=O)CNC(=O)[C@H](Cc2c[nH]c3ccccc23)NC(=O)[C@H](CCCNC(=N)N)NC(=O)[C@@H](Cc2cccc3ccccc23)NC(=O)C2CC(OCc3ccccc3)CN2C1=O (stereo partly shown) [Peptide 4] (Ac-[Nle][Orn][ξHyp](Bn)[d1Nal]RWG; lactam 2-C) | 10 | > 10000 | 26 | 67 | 38 | 15 | 10 | 118 |  |  |  |  |
| CCCC[C@H](NC(C)=O)C(=O)N[C@H]1CCNC(=O)CCNC(=O)[C@H](Cc2c[nH]c3ccccc23)NC(=O)[C@H](CCCNC(=N)N)NC(=O)[C@@H](Cc2cccc3ccccc23)NC(=O)C2CC(OCc3ccccc3)CN2C1=O (stereo partly shown) [Peptide 5] (Ac-[Nle][Dab][ξHyp](Bn)[d1Nal]RW[βAla]; lactam 2-C) | 5 | > 10000 | 5 | 75 | 32 | 11 | 0.74 | 77 |  |  |  |  |
| CCCC[C@H](NC(C)=O)C(=O)N[C@H]1CNC(=O)CNC(=O)[C@H](Cc2c[nH]c3ccccc23)NC(=O)[C@H](CCCNC(=N)N)NC(=O)[C@@H](Cc2cccc3ccccc23)NC(=O)C2CC(OCc3ccccc3)CN2C1=O (stereo partly shown) [Peptide 6] (Ac-[Nle][Dap][ξHyp](Bn)[d1Nal]RWG; lactam 2-C) | 6 | > 10000 | 521 | 34 | 36 | 87 |  |  |  |  |  |  |
| CC(=O)N[C@@H](CCCNC(=N)N)C(=O)N[C@H]1CCCNC(=O)CCCNC(=O)[C@H](Cc2c[nH]c3ccccc23)NC(=O)[C@H](CCCNC(=N)N)NC(=O)[C@@H](Cc2ccccc2)NC(=O)[C@H](CC(N)=O)NC1=O [Peptide 8] (Ac-R[Orn]N[dF]RW[GABA]; lactam 2-C) | 75 | 20 | 230 | 74 | 101 | 1 | > 10000 | 41 |  |  |  |  |
| CC(=O)N[C@@H](CCCNC(=N)N)C(=O)N[C@H]1CCNC(=O)CCCCNC(=O)[C@H](Cc2c[nH]c3ccccc23)NC(=O)[C@H](CCCNC(=N)N)NC(=O)[C@@H](Cc2ccccc2)NC(=O)[C@H](Cc2c[nH]cn2)NC1=O [Peptide 9] | 104 | 0.5 | 0.9 | 79 | 105 | 0.22 | > 10000 | 32 |  |  |  |  |
| CC(=O)N[C@@H](CCCNC(=N)N)C(=O)N[C@H]1CNC(=O)CCCCCNC(=O)[C@H](Cc2c[nH]c3ccccc23)NC(=O)[C@H](CCCNC(=N)N)NC(=O)[C@@H](Cc2ccccc2)NC(=O)[C@H](Cc2c[nH]cn2)NC1=O [Peptide 11] | 98 | 7 | 2 | 93 | 99 | 0.19 | > 10000 | 13 |  |  |  |  |
| CC(=O)N[C@@H](CCCNC(=N)N)C(=O)N[C@H]1CNC(=O)CCCCCNC(=O)[C@H](Cc2c[nH]c3ccccc23)NC(=O)[C@H](CCCNC(=N)N)NC(=O)[C@@H](Cc2ccccc2)NC(=O)[C@H](CC(N)=O)NC1=O [Peptide 12] (Ac-R[Dap]N[dF]RW[Ahx]; lactam 2-C) | 48 | 55 | 206 | 95 | 116 | 2 | > 10000 | 20 |  |  |  |  |
| CC(=O)N[C@@H](CCCNC(=N)N)C(=O)N[C@H]1CCCNC(=O)CCCNC(=O)[C@H](Cc2c[nH]c3ccccc23)NC(=O)[C@H](CCCNC(=N)N)NC(=O)[C@@H](Cc2ccccc2)NC(=O)[C@H](Cc2c[nH]cn2)NC1=O [Peptide 13] | 101 | 0.4 | 1 | 80 | 87 | 0.27 | > 10000 | 25 |  |  |  |  |
| CC(=O)N[C@@H](CCCNC(=N)N)C(=O)N[C@H]1CCCCNC(=O)CCNC(=O)[C@H](Cc2c[nH]c3ccccc23)NC(=O)[C@H](CCCNC(=N)N)NC(=O)[C@@H](Cc2ccccc2)NC(=O)[C@H](Cc2c[nH]cn2)NC1=O [Peptide 14] (Ac-RKH[dF]RW[βAla]; lactam 2-C) | 106 | 0.2 | 0.79 | 111 | 83 | 0.15 | > 10000 | 22 |  |  |  |  |
| CC(=O)N[C@@H](CCCNC(=N)N)C(=O)N[C@H]1CCCCNC(=O)CCNC(=O)[C@H](Cc2c[nH]c3ccccc23)NC(=O)[C@H](CCCNC(=N)N)NC(=O)[C@@H](Cc2ccccc2)NC(=O)[C@H](CC(N)=O)NC1=O [Peptide 15] (Ac-RKN[dF]RW[βAla]; lactam 2-C) | 90 | 2 | 140 | 102 | 94 | 0.3 | 140 | 44 |  |  |  |  |
| CCCCCC(=O)N[C@H]1CNC(=O)CNC(=O)[C@H](CCCNC(=N)N)NC(=O)[C@@H](Cc2ccccc2)NC(=O)[C@H](Cc2c[nH]cn2)NC1=O [Peptide 17] (Hexanoyl-[Dap]H[dF]RG; lactam 1-C) | 12 | > 10000 | 1000 | 84 | 14 | 7800 | > 10000 | -0.5 | 10 | 94 | 1300 | 83 |
| CCCCCC(=O)N[C@H]1CNC(O)CCNC(=O)[C@H](CCCNC(=N)N)NC(=O)[C@@H](Cc2ccccc2)NC(=O)[C@H](Cc2c[nH]cn2)NC1=O (stereo partly shown) [Peptide 18] | 16 | 7680 | 90 | 99 | 68 | 2100 | > 10000 | 3 | 5 | 89 | 180 | 90 |
